Assay results: patent publication US20190092804A1, “URACYL SPIROOXETANE NUCLEOSIDES” (Janssen Sciences Ireland Unlimited Company, priority 2012, published 2019)
Read-outs that look alike come from different tables or passages of the source.

Tests used:
[1] = tested on: JFH1-HCVcc in primary human hepatocytes; format: cell-based, HCV (JFH1); human hepatocytes; conditions: 3 days
Experimental: Primary human hepatocytes (PHH) were prepared from patients undergoing partial hepatectomy for metastases or benign tumors. Fresh human hepatocytes were isolated from encapsulated liver fragments using a modification of the two-step collagenase digestion method. Briefly, encapsulated liver tissue was placed in a custom-made perfusion apparatus and hepatic vessels were cannulated with tubing attached multichannel manifold. The liver fragment was initially perfused for 20 min with a prewarmed (37° C.) calcium-free buffer supplemented with ethylene glycol tetraacetic acid (EGTA) followed by perfusion with a prewarmed (37° C.) buffer containing calcium (CaCl2), H2O2) and collagenase 0.05% for 10 min. Then, liver fragment was gently shaken to free liver cells in Hepatocyte Wash Medium. Cellular suspension was filtered through a gauze-lined funnel. Cells were centrifuged at low speed centrifugation. The supernatant, containing damaged or dead hepatocytes, non parenchymal cells and debris was removed and pelleted hepatocytes were re-suspended in Hepatocyte Wash Medium. Viability and cell concentration were determined by trypan blue exclusion test.
Cells were resuspended in complete hepatocyte medium consisting of William's medium (Invitrogen) supplemented with 100 IU/L insulin (Novo Nordisk, France), and 10% heat inactivated fetal calf serum (Biowest, France), and seeded at a density 1.8×10^6 viable cells onto 6 well plates that had been precoated with a type I collagen from calf skin (Sigma-Aldrich, France) The medium was replaced 16-20 hours later with fresh complete hepatocyte medium supplemented with hydrocortisone hemisuccinate (SERB, Paris, France), and cells were left in this medium until HCV inoculation. The cultures were maintained at 37° C. in a humidified 5% CO2 atmosphere.
The PHHs were inoculated 3 days after seeding. JFH1-HCVcc stocks were used to inoculate PHHs for 12 hours, at a multiplicity of infection (MOI) of 0.1 ffu per cell. After a 12-hours incubation at 37° C., the inoculum was removed, and monolayers were washed 3 times with phosphate-buffered saline and incubated in complete hepatocyte medium containing 0.1% dimethylsufoxide as carrier control, 100 IU/ml of IFNalpha as […] or else increasing concentrations of compound 8a. The cultures then were maintained during 3 days.
Total RNA was prepared from cultured cells or from filtered culture supernatants using the RNeasy or Qiamp viral RNA minikit respectively (Qiagen SA, Courtaboeuf, France) according to the manufacturer's recommendations. HCV RNA was quantified in cells and culture supernatants using a strand-specific reverse real-time PCR technique described previously (Carrière M and al 2007):
Reverse transcription was performed using primers described previously located in the […] region of HCV genome, tag-RC1 (5′-[…]-3′) and RC21 (5′-[…]-3′) for the negative and positive strands, respectively. After a denaturation step performed at 70° C. for 8 min, the RNA template was incubated at 4° C. for 5 min in the presence of 200 ng of tag-RC1 primer and 1.25 mM of each deoxynucleoside triphosphate (dNTP) (Promega, Charbonnieres, France) in a total volume of 12 μl.
Reverse transcription was carried out for 60 min at 60° C. in the presence of 20 U RNaseOut™ (Invitrogen, Cergy Pontoise, France) and 7.5 U Thermoscript™ reverse transcriptase (Invitrogen), in the buffer recommended by the manufacturer. An additional treatment was applied by adding 1 μl (2U) RNaseH (Invitrogen) for 20 min at 37° C.
The first round of nested PCR was performed with 2 μl of the cDNA obtained in a total volume of 50 μl, containing 3 U Taq polymerase (Promega), 0.5 mM dNTP, and 0.5 μM RC1 (5′-[…]-3′) and RC21 primers for positive-strand amplification, or Tag (5′-[…]-3′) and RC21 primers for negative strand amplification. […]

[2] = tested on: HCV type 1b replicon (Huh-7 luc/neo cells); test: Replicon assay (A), Huh-Luc luciferase read-out; format: cell-based, HCV genotype 1b; conditions: Hepatitis C virus, Huh-7, 72 h, read-out: EC50 (μM) (HCV)
From the text: The compounds of formula I were examined for activity in the inhibition of HCV-RNA replication in a cellular assay. […] The cellular assay was based on a bicistronic expression construct, as described by Lohmann et al. (1999) Science vol. 285 pp. 110-113 with modifications described by Krieger et al. (2001) Journal of Virology 75: 4614-4624, in a multi-target screening strategy.
In essence, the method was as follows. The assay utilized the stably transfected cell line Huh-7 luc/neo (hereafter referred to as Huh-Luc). This cell line harbors an RNA encoding a bicistronic expression construct comprising the wild type NS3-NS5B regions of HCV type 1b translated from an internal ribosome entry site (IRES) from encephalomyocarditis virus (EMCV), preceded by a reporter portion (FfL-luciferase), and a selectable marker portion (neo^R, neomycine phosphotransferase). […]
The replicon cells were plated in 384-well plates in the presence of the test and control compounds which were added in various concentrations. Following an incubation of three days, HCV replication was measured by assaying luciferase activity (using standard luciferase assay substrates and reagents and a Perkin Elmer ViewLux™ ultraHTS microplate imager). […] The inhibitory activity of the compound on luciferase activity was monitored on the Huh-Luc cells, enabling a dose-response curve for each test compound. […]

[3] = Cytotoxicity (CC50) in Huh-7; format: cell-based; conditions: human, Huh-7 cells; Huh-7 cytotoxicity
From the text: The in vitro antiviral activity against HCV of the compounds of formula I can be tested in a cellular HCV replicon system based on Lohmann et al. (1999) Science 285:110-113, with the further modifications described by Krieger et al. (2001) Journal of Virology 75: 4614-4624 (incorporated herein by reference), which is further exemplified in the examples section. This model, while not a complete infection model for HCV, is widely accepted as the most robust and efficient model of autonomous HCV RNA replication currently available. It will be appreciated that it is important to distinguish between compounds that specifically interfere with HCV functions from those that exert cytotoxic or cytostatic effects in the HCV replicon model, and as a consequence cause a decrease in HCV RNA or linked reporter enzyme concentration. Assays are known in the field for the evaluation of cellular cytotoxicity based for example on the activity of mitochondrial enzymes using fluorogenic redox dyes such as resazurin. Furthermore, cellular counter screens exist for the evaluation of non-selective inhibition of linked reporter gene activity, such as firefly luciferase. […]

[4] = tested on: HCV 1b bicistronic subgenomic luciferase reporter replicon clone ET; test: Replicon assays (B), Assay 1; format: cell-based; conditions: Hepatitis C virus, 72 h; 3-day incubation, 2500 cells 384-well luciferase (variation: 3000 cells 96-well qRT-PCR); n = 8
Experimental: The anti-HCV activity of compound 8a was tested in cell culture with replicon cells generated using reagents from the Bartenschlager laboratory (the HCV 1b bicistronic subgenomic luciferase reporter replicon clone ET). The protocol included a 3-day incubation of 2500 replicon cells in a 384-well format in a nine-point 1:4 dilution series of the compound. Dose response curves were generated based on the firefly luciferase read-out. In a variation of this assay, a 3 day incubation of 3000 cells in a 96-well format in a nine-point dilution series was followed by qRT-PCR Taqman detection of HCV genome, and normalized to the cellular transcript, RPL13 (of the ribosomal subunit RPL13 gene) as a control for compound inhibition of cellular transcription.

[5] = tested on: HCV 1b bicistronic subgenomic luciferase reporter replicon clone ET or Huh-Luc-Neo; test: Replicon assays (B), Assay 2; format: cell-based; conditions: Hepatitis C virus, 72 h, 3-day incubation, 2×10^4 cells, 96-well, n = 4, read-out: Average EC50 value (8a), Assay 2
Experimental: The anti-HCV activity of compound 8a was tested in cell culture with replicon cells generated using reagents from the Bartenschlager laboratory (the HCV 1b bicistronic subgenomic luciferase reporter replicon clone ET or Huh-Luc-Neo). The protocol included a 3-day incubation of 2×10^4 replicon cells in a 96-well format in a six-point 1:5 dilution series of the compound. Dose response curves were generated based on the luciferase read-out.

[6] = tested on: HCV 1b bicistronic subgenomic luciferase reporter replicon clone ET or Huh-Luc-Neo; test: Replicon assays (B), Assay 3; format: cell-based; conditions: Hepatitis C virus, 72 h, 3-day incubation, 8×10^3 or 2×10^4 cells, 96-well, n = 1
Experimental: The anti-HCV activity of compound 8a was tested in cell culture with replicon cells generated using reagents from the Bartenschlager laboratory (the HCV 1b bicistronic subgenomic luciferase reporter replicon clone ET or Huh-Luc-Neo). The protocol included either a 3-day incubation of 8×10^3 cells or 2×10^4 cells in a 96-well format in an eight-point 1:5 dilution series of the compound. Dose response curves were generated based on the luciferase read-out.

[7] = tested on: HCV G1a; test: In vivo efficacy assay, humanized hepatocyte mouse model; parameters: species or system HCV G1a-infected PXB-mice; conditions: PXB-mice
Experimental: The in vivo efficacy of compound 8a and CAS-1375074-52-4 was determined in a humanized hepatocyte mouse model (PBX-mouse) as previously described in Inoue et. al (Hepatology. 2007 April; 45(4):921-8) and Tenato et. al. (Am J Pathol 2004; 165-901-912) with the following specification: Test animals: HCV […]-infected PXB-mice, male or female, >70% replacement index of human hepatocytes. Dosing was performed p.o for 7 days at doses indicated below wherein QD represents a single dose per day, BID represents two doses per day. Efficacy of compound 8a was compared to CAS-1375074-52-4.

For IFNα, which “positive strand HCV-RNA levels in primary human hepatocytes” value (“positive strand HCV-RNA levels” below) ([1]; Exp. 1, 100 IU/mL, HCV control 3.56) is on record?
Its value is 1.48 10^6 HCV RNA copies/μg of total RNA.

What about the “positive strand HCV-RNA levels” value ([1]; Exp. 2, 100 IU/mL, HCV control 5.53) of the same compound?
The value was 1.59 10^6 HCV RNA copies/μg of total RNA.

For `CC(C)O[P@@]1(=O)OC[C@H]2O[C@@H](n3ccc(=O)[nH]c3=O)[C@@]3(CCO3)[C@@H]2O1` [Compound 8a], which EC50 [2] is on record?
The EC50 was 0.13 µM.

What about the CC50 [3] of the same compound?
The CC50 was > 100 µM.

What about the EC50 [4] of the same compound?
Its EC50 is 57 µM.

What about the EC50 [5] of the same compound?
Its EC50 is 17.5 µM.

And the EC50 [6]?
Its EC50 is > 100 µM.

And the “positive strand HCV-RNA levels” value ([1]; Exp. 1, 0.195 μM, HCV control 3.56)?
The value was 2.18 10^6 HCV RNA copies/μg of total RNA.

What about the “positive strand HCV-RNA levels” value ([1]; Exp. 1, 0.78 μm, HCV control 3.56) of the same compound?
Its value is 2.25 10^6 HCV RNA copies/μg of total RNA.

And the “positive strand HCV-RNA levels” value ([1]; Exp. 1, 3.12 μm, HCV control 3.56)?
The value was 1.09 10^6 HCV RNA copies/μg of total RNA.

What about the “positive strand HCV-RNA levels” value ([1]; Exp. 1, 12.5 μm, HCV control 3.56) of the same compound?
The value was 2.17 10^6 HCV RNA copies/μg of total RNA.

And the “positive strand HCV-RNA levels” value ([1]; Exp. 1, 50 μm, HCV control 3.56)?
Its value is 0.94 10^6 HCV RNA copies/μg of total RNA.

What about the “positive strand HCV-RNA levels” value ([1]; Exp. 2, 0.195 μM, HCV control 5.53) of the same compound?
The value was 1.12 10^6 HCV RNA copies/μg of total RNA.

What about the “positive strand HCV-RNA levels” value ([1]; Exp. 2, 0.78 μm, HCV control 5.53) of the same compound?
Its value is 1.3 10^6 HCV RNA copies/μg of total RNA.

And the “positive strand HCV-RNA levels” value ([1]; Exp. 2, 3.12 μm, HCV control 5.53)?
The value was 0.94 10^6 HCV RNA copies/μg of total RNA.

And the “positive strand HCV-RNA levels” value ([1]; Exp. 2, 12.5 μm, HCV control 5.53)?
Its value is 1.3 10^6 HCV RNA copies/μg of total RNA.

And the “positive strand HCV-RNA levels” value ([1]; Exp. 2, 50 μm, HCV control 5.53)?
The value was 1.33 10^6 HCV RNA copies/μg of total RNA.

What about the “log drop HCV viral RNA after dosing for 7 days” value (from here on “log drop HCV viral RNA”) ([7]; 50 mg/kg BID p.o.) of the same compound?
The value was “clear log drop”.

And the “log drop HCV viral RNA” value ([7]; 100 mg/kg BID p.o.)?
The value was “most pronounced log drop effect in viral RNA”.

And the “log drop HCV viral RNA” value ([7]; 100 mg/kg QD p.o.)?
Its value is “clear log drop”.

What about the “log drop HCV viral RNA” value ([7]; 200 mg/kg QD p.o.) of the same compound?
The value was “clear log drop”.
